Data from US20220370636A1, “NICOTINAMIDE ADENINE DINUCLEOTIDE ACTIVATOR AND USE THEREOF” (University of South Florida, priority 2021, published 2022).

Columns and labels:
[1] = system: NF-κB; assay: Luciferase assay in TNF-α inflamed C2C12/NF-κB reporter cells; assay type: cell-based, mouse; conditions: 100 and 500 nM, and 1 μM; 24 hours; 10 ng/mL TNF-α; vs DMSO+TNF-α
Method: Cell culture and Luciferase assay. The C2C12/NF-κB reporter cells were grown in DMEM supplemented with 10% FBS and 1% penicillin/streptomycin. Puromycin selection of the cells was performed by adding 2 μg/mL to the media, and the C2C12 cells with the NF-κB reporter gene were selected for further culturing. Cells were plated at 40,000 cells per well for the initial seeding density using a 24-well format. To induce inflammation, TNF-α was added at a concentration of 10 ng/mL, and simultaneously, the cells were treated with the vehicle control (DMSO or blank NPs), P7C3 solution, and P7C3 NPs. […] After 24 hours, the luciferase assay was conducted per manufacturer protocol (Promega Luciferase Assay System, USA). Using a Synergy H1 Hybrid Multi-Mode Reader, the luminescence of the cell lysate in the opaque 96-well plate was measured. Protein in the cell lysates was measured using a Pierce™ 660 nm protein assay. The luciferase activity was calculated after normalization with protein concentration.

[2] = system: db/db mice; assay: qPCR gene expression of gastrocnemius muscle and MyHC1 myofibre staining in db/db mice; assay type: in vivo
Method: Quantitative real-time PCR. Total RNA was isolated from GAS muscle using the Exiqon miRCURY RNA Isolation kit (Exiqon, Mass., USA) according to the manufacturer's protocol. Complimentary DNA from total RNA was synthesized with iScript cDNA synthesis kit (Bio-Rad Laboratories, CA, USA) and quantitative real-time PCR (qPCR) analysis was performed on key transcriptome targets using iTaq Universal SYBR Green Supermix (Bio-Rad Laboratories, CA, USA). The cDNA synthesis and qPCR procedures were performed as described previously. The mouse HPRT gene was used as an internal control.
Myofibre staining. The 10 μm thick transverse serial cryosections of TA muscles were cut at the mid-belly region using Microm cryostat ma-chine. Briefly, the tissue sections were blocked with 0.2% bovine serum albumin (BSA) and 10% normal sheep serum (NSS) in PBS-Triton X100 (PBST) for 1 h at RT. All washes were carried out with PBS. Following washing, the sections were incubated in 5 μg/mL of mouse monoclonal primary antibody against myosin heavy chain type-1 (A4.840s DSHB, IA, USA) in 0.2% BSA and 5% NSS antibody dilution buffer in PBST overnight at 4° C. After washing, the sections were then fixed with 10% neutral buffered formalin for 5 min at RT, washed and incubated in 1:300 dilution of biotinylated sheep anti-mouse IgG (ab6807, Abcam, Mass., USA) and 1:1000 dilution of rabbit anti-laminin (L9393, Sigma-Aldrich, MO, USA) in the antibody dilution buffer for 1 h at RT. Following washes, the tissue sections were then incubated in 1:400 dilution of streptavidin AF488 conjugate and goat anti-rabbit AF594 (Invitrogen, CA, USA) and then washed and mounted with Prolong gold anti-fade mounting medium with DAPI (Invitrogen, CA, USA). Images were obtained at ×10 and ×20 magnifications with the Olympus IX73 inverted microscope using CellSens Standard software (Olympus Soft Imaging Solution, USA) and the MyHC1 positive myofibres were quantified with ImageJ software.

[3] = system: db/db mice; assay: Luminex Magpix IP-10 immunoassay of serum; assay type: in vivo; conditions: vs db-Veh
Method: Luminex Magpix IP-10 (C—X—C motif chemokine ligand 10) immunoassay. The serum inflammatory markers were analysed using a mouse cytokine/chemokine antibody-immobilized premixed 32-plex Luminex magnetic beads based 96-Well plate immunoassay kit (Milliplex Map kit—MCYTMAG-70K-PX32, EMD Millipore Corporation, MA, USA) according to the manufacturer's instruction. Briefly, the serum samples were diluted at 1:2 in the assay buffer and measured in duplicates along with the standards and quality controls. The serum samples were incubated overnight at 4° C. with the magnetic beads. The wells were then washed with wash buffer and incubated with the detection antibodies for 1 h at RT, followed by a streptavidin-phycoerythrin incubation for 30 min at RT. After washing, the plate was run on MAGPIX with xPONENT software. The mean fluorescent intensity data was analysed using a five-parameter logistic curve-fitting Multi Analyst software for calculating the cytokine/chemokine concentrations of the samples (n=6 mice per group).

[4] = system: db/db mice hearts; assay: Western blotting of db/db heart lysates; assay type: in vivo; conditions: vs vehicle
Method: Western blotting. For studies aimed to assess the insulin stimulated AKT phosphorylation, following four-week P7C3 treatment, mice were injected with Novolin R human insulin (1 Unit/kg body weight, i.p.), and hearts were collected after 5 minutes for Western blot analysis. Protein lysates for Western blotting were prepared from mouse hearts as described previously. Equivalent amounts of protein were loaded and resolved using 12% precast polyacrylamide gels (BioRad, CA, USA). Successful transfer of proteins was detected using Ponceau S (Sigma-Aldrich, MO, USA), and blots were probed with mouse monoclonal primary antibody for phospho AKT^ser473 (p-AKT), total AKT (t-AKT), phospho eNOS^ser1177 (p-eNOS), total eNOS (t-eNOS), Beclin1, and GAPDH (Cell signaling, MA, USA). HRP conjugated Rabbit anti-mouse antibody (Millipore) was used as a secondary antibody. Target protein band densities were quantified using Image J software.

[5] = system: C57Bl/6J wildtype mice; assay: In vivo myocardial infarction (permanent LAD ligation); conditions: single bolus 10 mg/kg i.p. 30 minutes prior to LAD occlusion; 24 hours; vs vehicle
Method: […]. All surgical procedures were carried out in aseptic conditions. A left thoracotomy incision was performed at the fourth intercostal space to expose the heart and ligating the LAD coronary artery with an 8-0 polypropylene suture to induce MI as described previously. Myocardial ischemia was confirmed with both the development of pallor myocardium distal to the ligation in the left ventricle and with the ST-segment elevation on the ECG. The skin and muscle incisions were closed with a 6-0 polypropylene suture, and the mice was administered a single dose long-acting analgesic Buprenorphine SR s.c. at 0.5-1.5 mg/kg body weight. The mice were monitored for any signs of pain or discomfort and its feeding and drinking behavior. After 24 hours of occlusion of the LAD coronary artery, the mice were euthanized as per the approved IACUC protocol, and the heart was excised for further processing with 2,3,5-Triphenyltetrazolium chloride (TTC) (Sigma-Aldrich, MO, USA). The whole heart was cut into six parallel short-axis sections and stained with 1% TTC for 90 minutes and fixed overnight in 10% neutral-buffered formalin (Sigma-Aldrich, MO, USA). The TTC stained heart sections were then scanned to determine the total infarct size as the ratio of the infarcted area, i.e., not stained with TTC to the ventricular area of the 4 sections from the apex to the site of occlusion (n=3 mice/group).

[6] = gastrocnemius muscle, vs db-Veh
[7] = gastrocnemius muscle, vs db-Veh and C57Bl/6J
[8] = gastrocnemius muscle, vs db-Veh and WT

OC(CNc1ccccc1)Cn1c2ccc(Br)cc2c2cc(Br)ccc21 (centres unmarked) [P7C3, 3,6-Dibromo-a-[(phenylamino)methyl]-9H-carbazole-9-ethanol]
NF-κB activity (luciferase) [1]: significant decrease | TNFα expression in skeletal muscle ([2]; gastrocnemius muscle, db-Veh vs db-P7C3): high levels in db-Veh compared with db-P7C3 | CD36 expression [2, 6]: significantly down-regulated | Fabp1 expression [2, 6]: significantly down-regulated | Fgf21 expression [2, 6]: significant reduction | MyHC type 1 (MyHC1) expression levels [2, 6]: significant de-crease | Cpt1 expression [2, 7]: significantly up-regulated | Pdk4 expression [2, 7]: significantly up-regulated | MyHC-2a expression levels [2, 8]: no significant change | MyHC-2b expression levels [2, 8]: no significant change | MyHC-2× expression levels [2, 8]: no significant change | number of MyHC1 positive myofibres ([2]; tibialis anterior immunostaining, vs db-Veh): significant decrease | serum IP-10 levels [3]: significant decrease | p-AKT signaling in cardiac tissue ([4]; 10 mg/kg/day i.p.): significantly increased | Beclin 1 protein expression [4]: significant increase | p-eNOS levels in cardiac tissue [4]: significantly increased | total infarct size [5]: significant reduction
